Results as given in patent US10493125B2 (Merck Sharp & Dohme Corp., priority 2015, dated 2019).

Experiments:
human GCGR = target: T1, human GCGR (Homo sapiens, UniProt P47871); test: cAMP activity assay (HitHunter cAMP XS), cells expressing human GCGR; format: cell-based; settings: for EC50: Table 2, cAMP production, read-out: EC50 hGCGR
T1 construct: expressed in transfected cells
Method: (§1) Peptides were dissolved in 100% DMSO and serially diluted to generate 10 point titrations. The peptide solutions were then transferred into 384-well assay plates (150 nL/well). Assay ready frozen cells expressing human GLP1R or human GCGR were suspended in growth media consisting of DMEM medium (GIBCO), 10% FBS (GIBCO), 1×NEAA(GIBCO), 1× P/S (GIBCO), 10 ug/ml Blasticidin (GIBCO) and 200 μg/mL Hygromycin (GIBCO). […] The cell suspensions (15 μL) were then added to the assay plates containing the peptide solutions (30,000 cells/well for human GCGR; 10,000 cells/well for human GLP1R). The cells were incubated for 1 hour at room temperature in the dark. Production of cAMP was determined using HitHunter™ cAMPXS kits (DiscoverX) following manufacturer protocol. The plates were incubated for overnight at room temperature in the dark. Luminescence was measured using an EnVision Multilabel plate reader (Perkin Elmer). […] EC50 values were calculated using uses a 4 parameter logistic fit based on the Levenberg-Marquardt algorithm.

human GLP1R = target: T2, human GLP1R (Homo sapiens, UniProt P43220); test: cAMP activity assay (HitHunter cAMP XS), cells expressing human GLP1R; format: cell-based; settings: Table 2; cAMP production; read-out: EC50 hGLP1R
T2 construct: expressed in transfected cells
Method: as §1

T1 sequence (P47871 26-477): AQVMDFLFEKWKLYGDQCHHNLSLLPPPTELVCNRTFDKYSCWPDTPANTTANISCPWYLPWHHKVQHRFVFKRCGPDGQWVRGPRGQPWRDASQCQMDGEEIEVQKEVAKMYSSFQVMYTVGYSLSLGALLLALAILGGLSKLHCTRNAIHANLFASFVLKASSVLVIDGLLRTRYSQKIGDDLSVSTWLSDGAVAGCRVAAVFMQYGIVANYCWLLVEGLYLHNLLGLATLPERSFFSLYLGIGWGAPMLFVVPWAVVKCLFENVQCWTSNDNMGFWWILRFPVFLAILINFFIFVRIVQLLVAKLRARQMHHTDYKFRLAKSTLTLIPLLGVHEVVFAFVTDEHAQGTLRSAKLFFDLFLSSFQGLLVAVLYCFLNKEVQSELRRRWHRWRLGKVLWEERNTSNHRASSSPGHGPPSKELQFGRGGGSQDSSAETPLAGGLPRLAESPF
T2 sequence (P43220 24-463): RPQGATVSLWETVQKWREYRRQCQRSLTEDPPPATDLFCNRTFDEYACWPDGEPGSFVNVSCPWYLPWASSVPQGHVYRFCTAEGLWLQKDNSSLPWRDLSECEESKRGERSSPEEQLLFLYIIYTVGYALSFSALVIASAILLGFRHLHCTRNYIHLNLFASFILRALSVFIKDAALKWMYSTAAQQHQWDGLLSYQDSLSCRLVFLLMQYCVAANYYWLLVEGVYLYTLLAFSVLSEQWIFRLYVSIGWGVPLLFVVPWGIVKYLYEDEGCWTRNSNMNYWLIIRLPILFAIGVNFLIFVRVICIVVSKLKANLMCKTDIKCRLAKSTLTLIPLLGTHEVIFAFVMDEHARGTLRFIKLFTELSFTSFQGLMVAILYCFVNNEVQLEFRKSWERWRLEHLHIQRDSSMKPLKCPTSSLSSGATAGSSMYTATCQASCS

Row | Structure (SMILES) | EC50 (human GCGR) | EC50 (human GLP1R) | balance of activity at the GCG and GLP-1 receptors (human GCGR; in words, both receptors)
1 | CC(C)C[C@H](NC(=O)[C@H](Cc1ccc(O)cc1)NC(=O)[C@H](CCCCN)NC(=O)[C@H](CO)NC(=O)[C@H](Cc1ccc(O)cc1)NC(=O)[C@H](CC(=O)O)NC(=O)[C@H](CO)NC(=O)[C@@H](NC(=O)[C@H](Cc1ccccc1)NC(=O)[C@@H](NC(=O)CNC(=O)[C@H](CCC(N)=O)NC(=O)[C@H](CO)NC(=O)[C@@H](N)Cc1c[nH]cn1)[C@@H](C)O)[C@@H](C)O)C(=O)N[C@@H](CC(=O)O)C(=O)N[C@@H](Cc1c[nH]c2ccccc12)C(=O)N[C@@H](CCCNC(=N)N)C(=O)N[C@@H](CCCNC(=N)N)C(=O)N[C@@H](C)C(=O)N[C@@H](CCC(N)=O)C(=O)N[C@@H](CC(=O)O)C(=O)N[C@@H](Cc1ccccc1)C(=O)N[C@H](C(=O)N[C@@H](CCC(N)=O)C(=O)N[C@@H](Cc1c[nH]c2ccccc12)C(=O)N[C@@H](CC(C)C)C(=O)N[C@@H](CC(C)C)C(=O)N[C@@H](CC(N)=O)C(=O)N[C@H](C(N)=O)[C@@H](C)O)C(C)C [PD23] | 0.03 nM | 0.05 nM | –
2 | CC[C@H](C)[C@H](NC(=O)[C@H](CC(C)C)NC(=O)[C@H](Cc1c[nH]c2ccccc12)NC(=O)[C@H](CCC(N)=O)NC(=O)[C@@H](NC(=O)[C@H](Cc1ccccc1)NC(=O)[C@H](CC(=O)O)NC(=O)[C@H](CCC(N)=O)NC(=O)[C@H](C)NC(=O)[C@H](CCCNC(=N)N)NC(=O)[C@H](CCCNC(=N)N)NC(=O)[C@H](C)NC(=O)[C@H](CC(=O)O)NC(=O)[C@H](CC(C)C)NC(=O)[C@H](Cc1ccc(O)cc1)NC(=O)[C@H](CCCCN)NC(=O)[C@H](CO)NC(=O)[C@H](Cc1ccc(O)cc1)NC(=O)[C@H](CC(=O)O)NC(=O)[C@H](CO)NC(=O)[C@@H](NC(=O)[C@H](Cc1ccccc1)NC(=O)[C@@H](NC(=O)CNC(=O)[C@H](CCC(N)=O)NC(=O)[C@H](CO)NC(=O)[C@@H](N)Cc1c[nH]cn1)[C@@H](C)O)[C@@H](C)O)C(C)C)C(=O)N[C@@H](CCCNC(=N)N)C(=O)N[C@H](C(N)=O)[C@@H](C)O [PD25] | 0.04 nM | 0.02 nM | –
3 | CC[C@H](C)[C@H](NC(=O)[C@H](CC(C)C)NC(=O)[C@H](Cc1c[nH]c2ccccc12)NC(=O)[C@H](CCC(N)=O)NC(=O)[C@@H](NC(=O)[C@H](Cc1ccccc1)NC(=O)[C@H](CC(=O)O)NC(=O)[C@H](CCC(N)=O)NC(=O)[C@H](C)NC(=O)[C@H](CCCNC(=N)N)NC(=O)[C@H](CCCNC(=N)N)NC(=O)[C@H](CO)NC(=O)[C@H](CC(=O)O)NC(=O)[C@H](CC(C)C)NC(=O)[C@H](Cc1ccc(O)cc1)NC(=O)[C@H](CCCCN)NC(=O)[C@H](CO)NC(=O)[C@H](Cc1ccc(O)cc1)NC(=O)[C@H](CC(=O)O)NC(=O)[C@H](CO)NC(=O)[C@@H](NC(=O)[C@H](Cc1ccccc1)NC(=O)[C@@H](NC(=O)CNC(=O)[C@H](CCC(N)=O)NC(=O)[C@H](CO)NC(=O)[C@@H](N)Cc1c[nH]cn1)[C@@H](C)O)[C@@H](C)O)C(C)C)C(=O)N[C@@H](CC(N)=O)C(=O)N[C@@H](Cc1ccc(O)cc1)C(N)=O [PD31] | 0.06 nM | 0.04 nM | –
4 | CSCC[C@H](NC(=O)[C@H](CC(C)C)NC(=O)[C@H](Cc1c[nH]c2ccccc12)NC(=O)[C@H](CCC(N)=O)NC(=O)[C@@H](NC(=O)[C@H](Cc1ccccc1)NC(=O)[C@H](CC(=O)O)NC(=O)[C@H](CCC(N)=O)NC(=O)[C@H](C)NC(=O)[C@H](CCCNC(=N)N)NC(=O)[C@H](CCCNC(=N)N)NC(=O)[C@H](CO)NC(=O)[C@H](CC(=O)O)NC(=O)[C@H](CC(C)C)NC(=O)[C@H](Cc1c[nH]c2ccccc12)NC(=O)[C@H](Cc1c[nH]cn1)NC(=O)[C@H](CO)NC(=O)[C@H](Cc1ccc(O)cc1)NC(=O)[C@H](CC(=O)O)NC(=O)[C@H](CO)NC(=O)[C@H](Cc1ccccc1)NC(=O)[C@H](Cc1ccccc1)NC(=O)[C@@H](NC(=O)CNC(=O)[C@H](CCC(N)=O)NC(=O)[C@H](CO)NC(=O)[C@@H](N)Cc1c[nH]cn1)[C@@H](C)O)C(C)C)C(=O)N[C@@H](CC(N)=O)C(=O)N[C@H](C(N)=O)[C@@H](C)O [PD43] | 0.03 nM | 0.04 nM | –
5 | CC[C@H](C)[C@H](NC(=O)[C@H](CC(C)C)NC(=O)[C@H](Cc1c[nH]c2ccccc12)NC(=O)[C@H](CC(=O)O)NC(=O)[C@@H](NC(=O)[C@H](Cc1ccccc1)NC(=O)[C@H](CC(=O)O)NC(=O)[C@H](CCC(N)=O)NC(=O)[C@H](C)NC(=O)[C@H](CCCNC(=N)N)NC(=O)[C@H](CCCNC(=N)N)NC(=O)[C@H](CO)NC(=O)[C@H](CC(=O)O)NC(=O)[C@H](CC(C)C)NC(=O)[C@H](Cc1ccc(O)cc1)NC(=O)[C@H](CCCCN)NC(=O)[C@H](CO)NC(=O)[C@H](Cc1ccc(O)cc1)NC(=O)[C@H](CC(=O)O)NC(=O)[C@H](CO)NC(=O)[C@@H](NC(=O)[C@H](Cc1ccccc1)NC(=O)[C@@H](NC(=O)CNC(=O)[C@H](CCC(N)=O)NC(=O)[C@H](CO)NC(=O)[C@@H](N)Cc1c[nH]cn1)[C@@H](C)O)[C@@H](C)O)C(C)C)C(=O)N[C@@H](CC(N)=O)C(=O)N[C@@H](CO)C(N)=O [PD50] | 0.02 nM | 0.01 nM | –

Further molecules by falling EC50 (human GCGR), results first:

Row | EC50 (human GCGR) | EC50 (human GLP1R) | Structure (SMILES) | balance of activity at the GCG and GLP-1 receptors (human GCGR; in words, both receptors)
6 | 0.07 nM | 0.02 nM | CC(C)C[C@H](NC(=O)[C@H](CC(C)C)NC(=O)[C@H](Cc1c[nH]c2ccccc12)NC(=O)[C@H](CC(=O)O)NC(=O)[C@@H](NC(=O)[C@H](Cc1ccccc1)NC(=O)[C@H](CC(=O)O)NC(=O)[C@H](CCC(N)=O)NC(=O)[C@H](C)NC(=O)[C@H](CCCNC(=N)N)NC(=O)[C@H](CCCNC(=N)N)NC(=O)[C@H](CO)NC(=O)[C@H](CC(=O)O)NC(=O)[C@H](CC(C)C)NC(=O)[C@H](Cc1ccc(O)cc1)NC(=O)[C@H](CCCCN)NC(=O)[C@H](CO)NC(=O)[C@H](Cc1ccc(O)cc1)NC(=O)[C@H](CC(=O)O)NC(=O)[C@H](CO)NC(=O)[C@@H](NC(=O)[C@H](Cc1ccccc1)NC(=O)[C@@H](NC(=O)CNC(=O)[C@H](CCC(N)=O)NC(=O)[C@H](CO)NC(=O)[C@@H](N)Cc1c[nH]cn1)[C@@H](C)O)[C@@H](C)O)C(C)C)C(=O)N[C@@H](CC(N)=O)C(=O)N[C@@H](C)C(N)=O [PD48] | –
7 | 0.03 nM | 0.02 nM | CSCC[C@H](NC(=O)[C@H](CC(C)C)NC(=O)[C@H](Cc1c[nH]c2ccccc12)NC(=O)[C@H](CCC(N)=O)NC(=O)[C@@H](NC(=O)[C@H](Cc1ccccc1)NC(=O)[C@H](CC(=O)O)NC(=O)[C@H](CCC(N)=O)NC(=O)[C@H](C)NC(=O)[C@H](CCCNC(=N)N)NC(=O)[C@H](CCCNC(=N)N)NC(=O)[C@H](CO)NC(=O)[C@H](CC(=O)O)NC(=O)[C@H](CC(C)C)NC(=O)[C@H](Cc1ccc(O)cc1)NC(=O)[C@H](CCCCN)NC(=O)[C@H](CO)NC(=O)[C@H](Cc1ccc(O)cc1)NC(=O)[C@H](CC(=O)O)NC(=O)[C@H](CO)NC(=O)[C@@H](NC(=O)[C@H](Cc1ccccc1)NC(=O)[C@@H](NC(=O)CNC(=O)[C@H](Cc1c[nH]cn1)NC(=O)[C@H](CO)NC(=O)[C@@H](N)Cc1c[nH]cn1)[C@@H](C)O)[C@@H](C)O)C(C)C)C(=O)N[C@H](C(=O)N[C@H](C(N)=O)[C@@H](C)O)[C@@H](C)O [PD51] | –
8 | 0.02 nM | 0.01 nM | CC(C)C[C@H](NC(=O)[C@H](Cc1ccc(O)cc1)NC(=O)[C@H](CCCCN)NC(=O)[C@H](CO)NC(=O)[C@H](Cc1ccc(O)cc1)NC(=O)[C@H](CC(=O)O)NC(=O)[C@H](CO)NC(=O)[C@@H](NC(=O)[C@H](Cc1ccccc1)NC(=O)[C@@H](NC(=O)CNC(=O)[C@H](CCC(N)=O)NC(=O)[C@H](CO)NC(=O)[C@@H](N)Cc1c[nH]cn1)[C@@H](C)O)[C@@H](C)O)C(=O)N[C@@H](CC(=O)O)C(=O)N[C@@H](Cc1c[nH]c2ccccc12)C(=O)N[C@@H](CCCNC(=N)N)C(=O)N[C@@H](CCCNC(=N)N)C(=O)N[C@@H](C)C(=O)N[C@@H](CCC(N)=O)C(=O)N[C@@H](CC(=O)O)C(=O)N[C@@H](Cc1ccccc1)C(=O)N[C@H](C(=O)N[C@@H](CCC(N)=O)C(=O)N[C@@H](Cc1c[nH]c2ccccc12)C(=O)N[C@@H](CC(C)C)C(=O)N[C@@H](CCC(N)=O)C(=O)N[C@@H](CC(N)=O)C(=O)N[C@H](C(N)=O)[C@@H](C)O)C(C)C [PD44] | relatively balanced potent activity at the GCG and GLP-1 receptors
9 | 0.01 nM | 0.01 nM | CSCC[C@H](NC(=O)[C@H](CC(=O)O)NC(=O)[C@H](CC(C)C)NC(=O)[C@H](Cc1ccc(O)cc1)NC(=O)[C@H](CCCCN)NC(=O)[C@H](CO)NC(=O)[C@H](Cc1ccc(O)cc1)NC(=O)[C@H](CC(=O)O)NC(=O)[C@H](CO)NC(=O)[C@@H](NC(=O)[C@H](Cc1ccccc1)NC(=O)[C@@H](NC(=O)CNC(=O)[C@H](CCC(N)=O)NC(=O)[C@H](CO)NC(=O)[C@@H](N)Cc1c[nH]cn1)[C@@H](C)O)[C@@H](C)O)C(=O)N[C@@H](CCC(N)=O)C(=O)N[C@@H](CCCNC(=N)N)C(=O)N[C@@H](C)C(=O)N[C@@H](Cc1c[nH]cn1)C(=O)N[C@@H](CC(=O)O)C(=O)N[C@@H](Cc1ccccc1)C(=O)N[C@H](C(=O)N[C@@H](CCC(N)=O)C(=O)N[C@@H](Cc1c[nH]c2ccccc12)C(=O)N[C@@H](CC(C)C)C(=O)N[C@@H](CCSC)C(=O)N[C@@H](CC(N)=O)C(=O)N[C@H](C(N)=O)[C@@H](C)O)C(C)C [PD55] | –
